Assays:
Test in all cases: kinase panel
Assay type in all cases: biochemical
AMPKα2(h) = AMPKα2(h) (Homo sapiens, UniProt P54646)
Method in brief: (§1)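 % inhibition read-out; kinome panel of 231 kinases; one analogue run on a selected 98-kinase subset only.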

BrSK1(h) = BrSK1(h) (Homo sapiens, UniProt Q8TDC3)
Method in brief: as §1

BrSK2(h) = BrSK2(h) (Homo sapiens, UniProt Q8IWQ3)
Method in brief: as §1

CLK3(h) = CLK3(h) (Homo sapiens, UniProt P49761)
Method in brief: as §1

DRAK1(h) = DRAK1(h) (Homo sapiens, UniProt Q9UEE5)
Method in brief: as §1

EphA2(h) = EphA2(h) (Homo sapiens, UniProt P29317)
Method in brief: as §1

EphA3(h) = EphA3(h) (Homo sapiens, UniProt P29320)
Method in brief: as §1

EphA7(h) = EphA7(h) (Homo sapiens, UniProt Q15375)
Method in brief: as §1

EphA8(h) = EphA8(h) (Homo sapiens, UniProt P29322)
Chain of EphA8(h) (P29322 28-1005): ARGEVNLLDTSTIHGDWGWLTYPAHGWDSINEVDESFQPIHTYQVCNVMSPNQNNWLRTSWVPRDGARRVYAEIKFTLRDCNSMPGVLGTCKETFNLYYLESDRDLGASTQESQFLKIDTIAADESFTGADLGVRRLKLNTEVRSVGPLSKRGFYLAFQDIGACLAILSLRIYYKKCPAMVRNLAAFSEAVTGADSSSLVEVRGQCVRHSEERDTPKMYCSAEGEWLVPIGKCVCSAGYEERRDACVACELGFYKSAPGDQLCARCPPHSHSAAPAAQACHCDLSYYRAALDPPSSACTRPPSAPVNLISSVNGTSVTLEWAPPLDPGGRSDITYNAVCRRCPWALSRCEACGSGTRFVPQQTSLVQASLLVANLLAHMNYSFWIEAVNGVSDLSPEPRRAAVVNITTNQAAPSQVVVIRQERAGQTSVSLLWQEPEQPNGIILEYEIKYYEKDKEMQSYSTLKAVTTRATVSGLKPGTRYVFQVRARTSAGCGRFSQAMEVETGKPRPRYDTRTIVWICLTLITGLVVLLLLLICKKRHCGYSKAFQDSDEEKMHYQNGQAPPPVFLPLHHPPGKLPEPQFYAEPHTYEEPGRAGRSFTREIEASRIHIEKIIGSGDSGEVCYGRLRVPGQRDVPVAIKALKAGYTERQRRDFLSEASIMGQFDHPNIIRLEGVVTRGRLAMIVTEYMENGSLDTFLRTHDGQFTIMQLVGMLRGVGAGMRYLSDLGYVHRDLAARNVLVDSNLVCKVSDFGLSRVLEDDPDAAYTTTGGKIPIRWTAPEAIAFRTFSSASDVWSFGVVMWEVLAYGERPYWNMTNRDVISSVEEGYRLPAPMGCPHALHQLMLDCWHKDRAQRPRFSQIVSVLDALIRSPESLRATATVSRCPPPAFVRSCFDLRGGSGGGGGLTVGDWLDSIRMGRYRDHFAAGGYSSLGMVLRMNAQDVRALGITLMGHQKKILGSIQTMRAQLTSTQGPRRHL
Method in brief: as §1

EphB1(h) = EphB1(h) (Homo sapiens, UniProt P54762)
Method in brief: as §1

Fer(h) = Fer(h) (Homo sapiens, UniProt P16591)
Method in brief: as §1

Fgr(h) = Fgr(h) (Homo sapiens, UniProt P09769)
Method in brief: as §1

GRK6(h) = GRK6(h) (Homo sapiens, UniProt P43250)
Chain of GRK6(h) (P43250 whole entry): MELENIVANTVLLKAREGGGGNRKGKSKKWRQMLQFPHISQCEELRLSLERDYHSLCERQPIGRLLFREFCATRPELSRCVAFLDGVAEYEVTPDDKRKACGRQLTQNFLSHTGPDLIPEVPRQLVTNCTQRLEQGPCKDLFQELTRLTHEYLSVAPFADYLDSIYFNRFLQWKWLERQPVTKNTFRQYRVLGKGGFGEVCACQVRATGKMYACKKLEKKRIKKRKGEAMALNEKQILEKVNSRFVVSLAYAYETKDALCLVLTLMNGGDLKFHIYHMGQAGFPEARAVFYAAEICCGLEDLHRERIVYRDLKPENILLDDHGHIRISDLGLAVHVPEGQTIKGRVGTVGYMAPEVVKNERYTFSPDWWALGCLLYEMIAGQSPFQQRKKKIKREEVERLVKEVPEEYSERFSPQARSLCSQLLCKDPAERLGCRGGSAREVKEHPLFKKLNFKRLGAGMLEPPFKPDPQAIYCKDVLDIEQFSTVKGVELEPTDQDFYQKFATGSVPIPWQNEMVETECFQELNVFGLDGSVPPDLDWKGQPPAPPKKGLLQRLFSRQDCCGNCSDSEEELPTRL
Method in brief: as §1

HIPK2(h) = HIPK2(h) (Homo sapiens, UniProt Q9H2X6)
Method in brief: as §1

HIPK3(h) = HIPK3(h) (Homo sapiens, UniProt Q9H422)
Chain of HIPK3(h) (Q9H422 whole entry): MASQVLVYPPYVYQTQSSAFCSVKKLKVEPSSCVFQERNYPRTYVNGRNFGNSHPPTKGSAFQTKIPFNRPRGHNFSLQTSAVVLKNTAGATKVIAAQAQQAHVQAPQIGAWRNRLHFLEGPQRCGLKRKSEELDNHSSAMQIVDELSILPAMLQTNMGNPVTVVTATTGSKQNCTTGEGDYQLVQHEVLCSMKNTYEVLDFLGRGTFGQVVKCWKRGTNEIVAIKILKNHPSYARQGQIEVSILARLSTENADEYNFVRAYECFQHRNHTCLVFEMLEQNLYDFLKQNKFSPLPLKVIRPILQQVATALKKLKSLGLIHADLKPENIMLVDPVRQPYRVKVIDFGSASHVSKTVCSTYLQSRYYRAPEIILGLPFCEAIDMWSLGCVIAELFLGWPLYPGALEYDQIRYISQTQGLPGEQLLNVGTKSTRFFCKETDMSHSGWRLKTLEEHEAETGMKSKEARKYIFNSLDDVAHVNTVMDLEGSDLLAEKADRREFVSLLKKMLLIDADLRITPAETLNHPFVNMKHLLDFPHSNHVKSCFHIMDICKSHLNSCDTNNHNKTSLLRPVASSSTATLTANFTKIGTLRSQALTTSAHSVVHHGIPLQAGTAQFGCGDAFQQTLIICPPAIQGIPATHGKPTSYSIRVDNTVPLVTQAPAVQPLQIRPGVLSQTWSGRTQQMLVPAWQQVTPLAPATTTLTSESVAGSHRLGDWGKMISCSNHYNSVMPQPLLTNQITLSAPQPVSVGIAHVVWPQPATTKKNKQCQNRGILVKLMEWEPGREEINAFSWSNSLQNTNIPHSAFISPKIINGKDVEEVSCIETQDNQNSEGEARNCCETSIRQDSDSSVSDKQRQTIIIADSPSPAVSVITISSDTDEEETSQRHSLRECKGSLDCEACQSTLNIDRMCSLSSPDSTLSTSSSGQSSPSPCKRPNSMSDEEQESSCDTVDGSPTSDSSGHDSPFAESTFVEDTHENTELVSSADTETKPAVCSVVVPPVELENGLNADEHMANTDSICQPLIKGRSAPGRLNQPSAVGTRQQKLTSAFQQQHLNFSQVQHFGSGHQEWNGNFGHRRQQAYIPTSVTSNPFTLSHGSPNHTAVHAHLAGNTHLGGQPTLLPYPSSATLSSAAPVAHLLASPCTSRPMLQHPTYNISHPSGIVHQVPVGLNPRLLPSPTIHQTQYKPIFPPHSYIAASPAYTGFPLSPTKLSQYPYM
Method in brief: as §1

Hck(h) activated = Hck(h) activated (Homo sapiens, UniProt P08631)
Method in brief: as §1

JNK2α2(h) = JNK2α2(h) (Homo sapiens, UniProt P45984)
Chain of JNK2α2(h) (P45984 whole entry): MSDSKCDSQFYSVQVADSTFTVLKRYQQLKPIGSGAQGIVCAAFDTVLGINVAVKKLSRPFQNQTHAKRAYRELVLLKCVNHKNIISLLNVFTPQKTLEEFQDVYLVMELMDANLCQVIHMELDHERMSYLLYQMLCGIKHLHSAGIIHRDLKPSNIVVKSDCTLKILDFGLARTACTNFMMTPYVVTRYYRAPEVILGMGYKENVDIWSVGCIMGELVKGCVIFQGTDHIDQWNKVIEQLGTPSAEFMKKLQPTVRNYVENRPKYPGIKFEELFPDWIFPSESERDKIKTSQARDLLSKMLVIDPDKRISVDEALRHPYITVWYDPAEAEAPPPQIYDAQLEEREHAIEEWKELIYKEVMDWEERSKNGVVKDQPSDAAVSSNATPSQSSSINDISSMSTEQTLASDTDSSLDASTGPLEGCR
Method in brief: as §1

LKB1(h) = LKB1(h) (Homo sapiens, UniProt Q15831)
Method in brief: as §1

Lyn(h) = Lyn(h) (Homo sapiens, UniProt P07948)
Chain of Lyn(h) (P07948 whole entry): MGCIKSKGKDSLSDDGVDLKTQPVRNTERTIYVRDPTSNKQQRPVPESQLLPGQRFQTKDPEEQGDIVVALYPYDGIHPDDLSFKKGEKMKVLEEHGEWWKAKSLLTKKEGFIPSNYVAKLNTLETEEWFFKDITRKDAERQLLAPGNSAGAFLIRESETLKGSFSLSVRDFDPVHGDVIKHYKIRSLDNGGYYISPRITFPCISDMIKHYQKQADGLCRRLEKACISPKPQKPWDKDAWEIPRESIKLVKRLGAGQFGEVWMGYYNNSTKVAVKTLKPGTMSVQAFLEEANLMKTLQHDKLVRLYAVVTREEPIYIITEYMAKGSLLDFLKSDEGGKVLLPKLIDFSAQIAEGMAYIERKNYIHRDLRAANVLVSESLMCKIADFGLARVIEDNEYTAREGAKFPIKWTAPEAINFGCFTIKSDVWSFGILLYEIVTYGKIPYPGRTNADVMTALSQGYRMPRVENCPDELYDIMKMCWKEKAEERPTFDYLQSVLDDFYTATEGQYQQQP
Method in brief: as §1

MELK(h) = MELK(h) (Homo sapiens, UniProt Q14680)
Chain of MELK(h) (Q14680 whole entry): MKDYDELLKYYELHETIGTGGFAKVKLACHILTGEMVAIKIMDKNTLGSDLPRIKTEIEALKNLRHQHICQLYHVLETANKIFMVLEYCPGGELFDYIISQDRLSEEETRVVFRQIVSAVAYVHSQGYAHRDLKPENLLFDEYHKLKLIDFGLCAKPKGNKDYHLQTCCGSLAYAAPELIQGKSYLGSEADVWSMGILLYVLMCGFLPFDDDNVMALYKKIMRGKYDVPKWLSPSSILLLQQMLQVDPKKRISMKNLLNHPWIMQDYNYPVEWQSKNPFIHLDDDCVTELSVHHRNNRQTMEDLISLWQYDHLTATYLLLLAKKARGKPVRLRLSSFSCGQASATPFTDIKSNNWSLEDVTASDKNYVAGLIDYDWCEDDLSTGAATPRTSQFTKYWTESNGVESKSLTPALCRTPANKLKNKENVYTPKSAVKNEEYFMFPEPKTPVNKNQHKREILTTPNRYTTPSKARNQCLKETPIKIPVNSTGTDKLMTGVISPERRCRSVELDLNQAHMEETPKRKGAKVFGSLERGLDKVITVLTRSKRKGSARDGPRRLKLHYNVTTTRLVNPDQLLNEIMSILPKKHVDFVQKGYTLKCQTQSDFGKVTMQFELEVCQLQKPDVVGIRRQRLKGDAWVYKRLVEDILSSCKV
Method in brief: as §1

MST1(h) = MST1(h) (Homo sapiens, UniProt Q13043)
Method in brief: as §1

MuSK(h) = MuSK(h) (Homo sapiens, UniProt O15146)
Method in brief: as §1

NEK3(h) = NEK3(h) (Homo sapiens, UniProt P51956)
Method in brief: as §1

NEK7(h) = NEK7(h) (Homo sapiens, UniProt Q8TDX7)
Method in brief: as §1

PASK(h) = PASK(h) (Homo sapiens, UniProt Q96RG2)
Method in brief: as §1

PKBβ(h) = PKBβ(h) (Homo sapiens, UniProt P31751)
Method in brief: as §1

PKCγ(h) = PKCγ(h) (Homo sapiens, UniProt P05129)
Method in brief: as §1

PKCδ(h) = PKCδ(h) (Homo sapiens, UniProt Q05655)
Method in brief: as §1

PKG1β(h) = PKG1β(h) (Homo sapiens, UniProt Q13976)
Method in brief: as §1

Pim-3(h) = Pim-3(h) (Homo sapiens, UniProt Q86V86)
Method in brief: as §1

PrKX(h) = PrKX(h) (Homo sapiens, UniProt P51817)
Method in brief: as §1

SAPK2b(h) = SAPK2b(h) (Homo sapiens, UniProt Q15759)
Method in brief: as §1

SIK(h) = SIK(h) (Homo sapiens, UniProt P57059)
Method in brief: as §1

SRPK1(h) = SRPK1(h) (Homo sapiens, UniProt Q96SB4)
Method in brief: as §1

STK33(h) = STK33(h) (Homo sapiens, UniProt Q9BYT3)
Chain of STK33(h) (Q9BYT3 whole entry): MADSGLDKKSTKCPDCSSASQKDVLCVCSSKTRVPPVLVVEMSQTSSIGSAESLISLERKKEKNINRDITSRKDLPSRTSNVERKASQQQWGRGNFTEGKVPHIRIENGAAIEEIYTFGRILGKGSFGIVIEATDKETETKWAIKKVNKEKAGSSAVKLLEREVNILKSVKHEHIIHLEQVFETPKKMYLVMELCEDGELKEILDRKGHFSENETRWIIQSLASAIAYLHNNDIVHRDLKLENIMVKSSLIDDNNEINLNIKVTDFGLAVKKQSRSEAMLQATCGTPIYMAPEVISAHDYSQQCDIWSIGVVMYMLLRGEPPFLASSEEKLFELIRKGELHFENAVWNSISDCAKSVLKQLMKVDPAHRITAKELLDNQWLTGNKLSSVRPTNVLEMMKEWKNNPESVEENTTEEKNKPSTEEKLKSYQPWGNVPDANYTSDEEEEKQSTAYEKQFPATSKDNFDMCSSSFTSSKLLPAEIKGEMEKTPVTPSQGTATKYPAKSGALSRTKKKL
Method in brief: as §1

TGFBR1(h) = TGFBR1(h) (Homo sapiens, UniProt P36897)
Method in brief: as §1

Tie2 (h) = Tie2 (h) (Homo sapiens, UniProt Q02763)
Method in brief: as §1

WNK3(h) = WNK3(h) (Homo sapiens, UniProt Q9BYP7)
Method in brief: as §1

eEF-2K(h) = eEF-2K(h) (Homo sapiens, UniProt O00418)
Method in brief: as §1

mTOR/FKBP12(h) = mTOR/FKBP12(h) (Homo sapiens, UniProt P42345)
Method in brief: as §1

p70S6K(h) = p70S6K(h) (Homo sapiens, UniProt P23443)
Method in brief: as §1

Nc1n[nH]c2ccc(-c3ccnc4[nH]c(-c5cccc(OCc6ccccc6)c5)cc34)cc12 [Compound 5r [SU1261]]
inhibition at 1 µM (AMPKα2(h)): 13% | inhibition at 1 µM (BrSK1(h)): -5% | inhibition at 1 µM (BrSK2(h)): 9% | inhibition at 1 µM (CLK3(h)): 23% | inhibition at 1 µM (DRAK1(h)): 24% | inhibition at 1 µM (EphA2(h)): -9% | inhibition at 1 µM (EphA3(h)): 0% | inhibition at 1 µM (EphA7(h)): -3% | inhibition at 1 µM (EphA8(h)): -7% | inhibition at 1 µM (EphB1(h)): 14% | inhibition at 1 µM (Fer(h)): -16% | inhibition at 1 µM (Fgr(h)): 33% | inhibition at 1 µM (GRK6(h)): -8% | inhibition at 1 µM (HIPK2(h)): 14% | inhibition at 1 µM (HIPK3(h)): 6% | inhibition at 1 µM (Hck(h) activated): 22% | inhibition at 1 µM (JNK2α2(h)): -6% | inhibition at 1 µM (LKB1(h)): 17% | inhibition at 1 µM (Lyn(h)): 31% | inhibition at 1 µM (MELK(h)): 13% | inhibition at 1 µM (MST1(h)): 4% | inhibition at 1 µM (MuSK(h)): 13% | inhibition at 1 µM (NEK3(h)): -14% | inhibition at 1 µM (NEK7(h)): -2% | inhibition at 1 µM (PASK(h)): 16% | inhibition at 1 µM (PKBβ(h)): -5% | inhibition at 1 µM (PKCγ(h)): -2% | inhibition at 1 µM (PKCδ(h)): 6% | inhibition at 1 µM (PKG1β(h)): 1% | inhibition at 1 µM (Pim-3(h)): 6% | inhibition at 1 µM (PrKX(h)): -22% | inhibition at 1 µM (SAPK2b(h)): -18% | inhibition at 1 µM (SIK(h)): 8% | inhibition at 1 µM (SRPK1(h)): 7% | inhibition at 1 µM (STK33(h)): 25% | inhibition at 1 µM (TGFBR1(h)): 21% | inhibition at 1 µM (Tie2 (h)): 18% | inhibition at 1 µM (WNK3(h)): 17% | inhibition at 1 µM (eEF-2K(h)): -7% | inhibition at 1 µM (mTOR/FKBP12(h)): 2% | inhibition at 1 µM (p70S6K(h)): -15%

Nc1n[nH]c2ccc(-c3ccnc4[nH]c(-c5ccccc5)cc34)cc12 [Compound 4]
inhibition at 1 µM (AMPKα2(h)): 43% | inhibition at 1 µM (BrSK1(h)): 45% | inhibition at 1 µM (BrSK2(h)): 41% | inhibition at 1 µM (CLK3(h)): 74% | inhibition at 1 µM (DRAK1(h)): 67% | inhibition at 1 µM (EphA2(h)): 14% | inhibition at 1 µM (EphA3(h)): 19% | inhibition at 1 µM (EphA7(h)): 26% | inhibition at 1 µM (EphA8(h)): -2% | inhibition at 1 µM (EphB1(h)): 63% | inhibition at 1 µM (Fer(h)): 7% | inhibition at 1 µM (Fgr(h)): 54% | inhibition at 1 µM (GRK6(h)): 0% | inhibition at 1 µM (HIPK2(h)): 57% | inhibition at 1 µM (HIPK3(h)): 26% | inhibition at 1 µM (Hck(h) activated): 38% | inhibition at 1 µM (JNK2α2(h)): 22% | inhibition at 1 µM (LKB1(h)): 15% | inhibition at 1 µM (Lyn(h)): 77% | inhibition at 1 µM (MELK(h)): 41% | inhibition at 1 µM (MST1(h)): 33% | inhibition at 1 µM (MuSK(h)): 48% | inhibition at 1 µM (NEK3(h)): 0% | inhibition at 1 µM (NEK7(h)): -2% | inhibition at 1 µM (PASK(h)): 65% | inhibition at 1 µM (PKBβ(h)): 3% | inhibition at 1 µM (PKCγ(h)): -5% | inhibition at 1 µM (PKCδ(h)): 16% | inhibition at 1 µM (PKG1β(h)): 13% | inhibition at 1 µM (Pim-3(h)): 10% | inhibition at 1 µM (PrKX(h)): -21% | inhibition at 1 µM (SAPK2b(h)): -13% | inhibition at 1 µM (SIK(h)): 56% | inhibition at 1 µM (SRPK1(h)): 5% | inhibition at 1 µM (STK33(h)): 38% | inhibition at 1 µM (TGFBR1(h)): 28% | inhibition at 1 µM (Tie2 (h)): 55% | inhibition at 1 µM (WNK3(h)): 20% | inhibition at 1 µM (eEF-2K(h)): 0% | inhibition at 1 µM (mTOR/FKBP12(h)): 3% | inhibition at 1 µM (p70S6K(h)): 33%
